Measurements as given in patent publication US10051861B2, “N-arylamidine-substituted trifluoroethyl sulfide derivatives as acaricides and insecticides” (BAYER CROPSCIENCE AG, priority 2011, dated 2018).
Where two headings read alike, the source gives them in different places.

Test system: greenhouse red spider mite (Tetranychus urticae)
Assay: Tetranychus urticae spray test, OP-resistant (TETRUR), bean leaf disks
Format: in vivo
Method: After 6 days, the effect in % is determined.

[1] = Tetranychus urticae, foliar, 144 h, application rate 500 g/ha, after 6 days, read-out: efficacy (spider mites killed)
[2] = Tetranychus urticae, foliar, 144 h, read-out: efficacy (spider mites killed)
[3] = application rate 500 g/ha, after 6 days

Row | Structure (SMILES) | pest or weed control at 500 g/ha [1] | also measured
1 | Cc1cc(C)c([S+]([O-])CC(F)(F)F)cc1/N=C(\NCC(F)(F)F)C1CCC1 (centres unmarked) [Ib-142] | 90% | –
2 | CN/C(=N/c1cc(SCC(F)(F)F)c(C)cc1F)c1ccc(Cl)s1 [Ia-218] | 90% | –
3 | FC(F)(F)CN/C(=N\c1cc(SCC(F)(F)F)c(Cl)cc1Cl)C1CC1 [Ia-153] | 100% | –
4 | Cc1cc(F)c(/N=C(\N)c2ccc(Cl)nc2)cc1SCC(F)(F)F [Ia-46] | 100% | –
5 | Cc1cc(C)c(SCC(F)(F)F)cc1/N=C(\N)C(F)(F)C(F)(F)F [Ia-127] | 100% | –
6 | CN1CCC/C1=N\c1cc(SCC(F)(F)F)c(Cl)cc1Cl [Ia-68] | 90% | –
7 | CN/C(=N/c1cc([S+]([O-])CC(F)(F)F)c(C)cc1F)c1ccccc1C(F)(F)F (centres unmarked) [Ib-148] | 100% | –
8 | Cc1cc(F)c(/N=C(\NCC(F)(F)F)C2CCC2)cc1[S+]([O-])CC(F)(F)F (centres unmarked) [Ib-166] | 90% | –
9 | N/C(=N\c1cc([S+]([O-])CC(F)(F)F)c(Cl)cc1Cl)c1ccncn1 (centres unmarked) [Ib-69] | 100% | –
10 | COc1cc(C)c(SCC(F)(F)F)cc1/N=C(/c1ccc(Cl)cc1)N1CCOCC1 [Ia-268, N-[(4-Chlorophenyl)(morpholin-4-yl)methylene]-2-methoxy-4-methyl-5-[(2,2,2-trifluoroethyl)sulfanyl]aniline] | – | pest or weed control at 500 g/ha [2]: 90%
11 | Cc1cc(C)c([S+]([O-])CC(F)(F)F)cc1/N=C(\N)C1(Cl)CC1 (centres unmarked) [Ib-79] | 100% | –
12 | CN/C(=N\c1cc([S+]([O-])CC(F)(F)F)c(Cl)cc1Cl)c1cccc(Cl)c1 (centres unmarked) [Ib-140] | 100% | –
13 | CN(C)/C(=N/c1cc([S+]([O-])CC(F)(F)F)c(Cl)cc1Cl)C(F)(F)F (centres unmarked) [Ib-26] | 100% | –
14 | Cc1cc(C)c([S+]([O-])CC(F)(F)F)cc1/N=C(/c1cccnc1)N(C)C (centres unmarked) [Ib-98] | 100% | –
15 | CN(C)/C(=N/c1ccc(Cl)c(SCC(F)(F)F)c1)C(F)(F)F [Ia-77] | 100% | –
16 | Cc1cc(F)c(/N=C/N(C)C)cc1[S+]([O-])CC(F)(F)F (centres unmarked) [Ib-128] | 90% | –
17 | N/C(=N\c1cccc(SCC(F)(F)F)c1)C1(Cl)CC1 [Ia-100] | 100% | –
18 | Cc1cc(F)c(/N=C(\N)C2(Cl)CC2)cc1SCC(F)(F)F [Ia-58] | – | pest or weed control at 100 g/ha (Tetranychus urticae, foliar, 144 h, application rate 100 g/ha, after 6 days, read-out: efficacy (spider mites killed)): 100%
19 | CN/C(=N\c1cc(SCC(F)(F)F)c(Cl)cc1Cl)c1cccnc1 [Ia-136] | 100% | –
20 | Cc1cc(C)c(SCC(F)(F)F)cc1/N=C(\N)c1ccccn1 [Ia-98] | 100% | –
21 | N/C(=N\c1cccc(SCC(F)(F)F)c1)c1ccncc1 [Ia-101] | 90% | –
22 | Cc1cc(F)c(/N=C(/c2ccc(Cl)cc2)N(C)C)cc1[S+]([O-])CC(F)(F)F (centres unmarked) [Ib-73] | 90% | –
23 | Cc1cc(F)c(/N=C(/NC2CS(=O)(=O)C2)C(F)(F)F)cc1[S+]([O-])CC(F)(F)F (centres unmarked) [Ib-91] | 90% | –
24 | [O-][S+](CC(F)(F)F)c1cc(/N=C(\NCC(F)(F)F)C2CCC2)c(Cl)cc1Cl (centres unmarked) [Ib-167] | 90% | –
25 | Cc1cc(F)c(/N=C(\N)c2ccc(C(F)(F)F)nc2)cc1SCC(F)(F)F [Ia-86] | 100% | –
26 | CN/C(=N\c1cc(SCC(F)(F)F)c(C)cc1C)c1cccc(Cl)c1 [Ia-265] | 90% | –
27 | Cc1cc(F)c(/N=C(/N)c2ccc([N+](=O)[O-])cc2)cc1SCC(F)(F)F [Ia-223] | 90% | –

Row | Structure (SMILES) | pest or weed control at 500 g/ha [1] | also measured
28 | O=C1CS/C(=N\c2cc(SCC(F)(F)F)c(Cl)cc2Cl)N1C1CC1 [Ia-196] | 90% | –
29 | Cc1cc(Cl)c(SCC(F)(F)F)cc1/N=C(\N(C)C)C(F)(F)F [Ia-53] | 100% | –
30 | CCN/C(=N\c1cc([S+]([O-])CC(F)(F)F)c(Cl)cc1Cl)c1cccnc1 (centres unmarked) [Ib-150] | 90% | –
31 | Cc1cc(F)c(/N=C2\NCCO2)cc1SCC(F)(F)F [Ia-243] | – | pest or weed control at 500 g/ha [2]: 90%
32 | Cc1cc(C)c([S+]([O-])CC(F)(F)F)cc1/N=C(\N)c1ccc(Cl)nc1 (centres unmarked) [Ib-94] | 100% | –
33 | CNC(=Nc1cc(SCC(F)(F)F)c(C)cc1Cl)C(F)(F)F [Ia-20] | – | efficacy (spider mites killed) [3]: 100%
34 | N/C(=N\c1cc(SCC(F)(F)F)c(Cl)cc1Cl)C1CCCCC1 [Ia-156] | 100% | –
35 | CN(C)/C(=N/c1cc(SCC(F)(F)F)c(Br)cc1Br)C(F)(F)F [Ia-32] | 100% | –
36 | Cc1cc(F)c(/N=C(\N)C2CCCCC2)cc1[S+]([O-])CC(F)(F)F (centres unmarked) [Ib-131] | 100% | –
37 | Cc1cc(F)c(/N=C(\c2ccc(C#N)cc2)N(C)C)cc1SCC(F)(F)F [Ia-131] | 100% | –
38 | Cc1cc(C)c([S+]([O-])CC(F)(F)F)cc1/N=C(/c1ccc(Cl)nc1)N(C)C (centres unmarked) [Ib-133] | 90% | –
39 | Cc1cc(F)c(/N=C(\N)C2(C#N)CC2)cc1[S+]([O-])CC(F)(F)F (centres unmarked) [Ib-72] | 100% | –
40 | CN/C(=N\c1cc(SCC(F)(F)F)c(C)cc1F)C1CC1 [Ia-163] | 100% | –
41 | Cc1cc(C)c(SCC(F)(F)F)cc1/N=C(\NCC(F)(F)F)C1CCCC1 [Ia-241] | 90% | –
42 | CN/C(CC(F)(F)F)=N\c1cc(SCC(F)(F)F)c(C)cc1F [Ia-233] | 100% | –
43 | CN/C(=N\c1cc([S+]([O-])CC(F)(F)F)c(Cl)cc1Cl)c1cccnc1 (centres unmarked) [Ib-95] | 100% | –
44 | CCN(C)/C(=N/c1cc([S+]([O-])CC(F)(F)F)c(C)cc1F)C(F)(F)F (centres unmarked) [Ib-23] | 90% | –
45 | Cc1cc(F)c(/N=C(\N)C2CCC2)cc1SCC(F)(F)F [Ia-94] | 100% | –
46 | CN(C)/C(=N\c1cc(SCC(F)(F)F)c(Cl)cc1Cl)c1ccc(Cl)nc1 [Ia-237] | 90% | –
47 | Cc1cc(F)c(/N=C(/NCc2ccccc2)C(F)(F)F)cc1[S+]([O-])CC(F)(F)F (centres unmarked) [Ib-74] | 90% | –
48 | Cc1cc(F)c(/N=C(/NC2(C)CC2)C(F)(F)F)cc1SCC(F)(F)F [Ia-85] | 100% | –
49 | CN/C(=N\c1cc(SCC(F)(F)F)c(C)cc1F)c1ccccn1 [Ia-72] | 100% | –
50 | N/C(=N\c1cc(SCC(F)(F)F)c(Cl)cc1Cl)C1CC1(Cl)Cl (centres unmarked) [Ia-140] | 100% | –
51 | Cc1cc(Cl)c(/N=C2\SCC(=O)N2CC(F)(F)F)cc1SCC(F)(F)F [Ia-275] | 100% | –
52 | CN/C(=N/c1cc(SCC(F)(F)F)c(C)cc1F)c1ccc(Cl)nc1 [Ia-168] | 90% | –
53 | N/C(=N\c1cc(SCC(F)(F)F)c(Cl)cc1Cl)C1(Cl)CC1 [Ia-123] | 100% | –
54 | Cc1cc(F)c(N=C(N)C(F)(F)C(F)(F)C(F)(F)C(F)(F)C(F)(F)C(F)(F)C(F)(F)F)cc1SCC(F)(F)F [Ia-06] | – | efficacy (spider mites killed) [3]: 100%

Row | Structure (SMILES) | pest or weed control at 500 g/ha [1] | also measured
55 | Cc1cc(Cl)c(SCC(F)(F)F)cc1/N=C(\N)C(F)(F)F [Ia-76] | 100% | –
56 | FC(F)(F)CN/C(=N\c1cc(SCC(F)(F)F)c(Cl)cc1Cl)C1CCCC1 [Ia-254] | 90% | –
57 | Cc1cc(F)c(/N=C(\NC2CC2)C2CC2)cc1SCC(F)(F)F [Ia-108] | 80% | –
58 | Cc1cc(F)c(/N=C(/c2cccnc2)N(C)C)cc1SCC(F)(F)F [Ia-59] | 90% | –
59 | COc1cc(C)c(SCC(F)(F)F)cc1/N=C(/c1ccc(Cl)cc1)N(C)C [Ia-252] | 90% | –
60 | Cc1cc(C)c([S+]([O-])CC(F)(F)F)cc1/N=C(/c1ccc(Cl)cc1)N(C)C (centres unmarked) [Ib-154] | 90% | –
61 | Cc1cc(F)c(/N=C(\N)c2ccccn2)cc1SCC(F)(F)F [Ia-63] | 90% | –
62 | Cc1cc(F)c(/N=C(\c2ccc(C(F)(F)F)cc2)N(C)C)cc1SCC(F)(F)F [Ia-242] | 100% | –
63 | Cc1cc(F)c(/N=C(\c2ccccc2F)N(C)C)cc1[S+]([O-])CC(F)(F)F (centres unmarked) [Ib-87] | 100% | –
64 | N#CC1(/C(N)=N/c2cc(SCC(F)(F)F)c(Cl)cc2Cl)CC1 [Ia-219] | 90% | –
65 | N/C(=N\c1cccc(SCC(F)(F)F)c1)c1cccnc1 [Ia-104] | 90% | –
66 | Cc1cc(F)c(/N=C(\N)c2ccncn2)cc1SCC(F)(F)F [Ia-42] | 100% | –
67 | CN(C)/C(=N/c1cc(SCC(F)(F)F)c(F)cc1Cl)C(F)(F)F [Ia-109] | 80% | –
68 | Cc1cc(C)c(SCC(F)(F)F)cc1/N=C1\SCC(=O)N1C1CC1 [Ia-187] | 100% | –
69 | [O-][S+](CC(F)(F)F)c1cc(/N=C(\NCCc2ncc(C(F)(F)F)cc2Cl)C2CC2)c(Cl)cc1Cl (centres unmarked) [Ib-130] | 100% | –
70 | CN(C)/C(=N/c1cc([S+]([O-])CC(F)(F)F)c(Br)cc1Br)C(F)(F)F (centres unmarked) [Ib-25] | 100% | –
71 | N/C(=N\c1cc([S+]([O-])CC(F)(F)F)c(Cl)cc1Cl)C(F)F (centres unmarked) [Ib-80] | 100% | –
72 | NN/C(=N/c1cc(SCC(F)(F)F)c(Cl)cc1F)C(F)(F)F [Ia-155] | 90% | –
73 | Cc1cc(C)c(SCC(F)(F)F)cc1/N=C(\NCC(F)F)C1CCCC1 [Ia-257] | 90% | –
74 | CN/C(=N\c1cc(SCC(F)(F)F)c(C)cc1C)c1ccc(Cl)cc1 [Ia-176] | 90% | –
75 | Cc1cc(C)c(SCC(F)(F)F)cc1/N=C(\N)c1ccc(Cl)nc1 [Ia-81] | 100% | –
76 | FC(F)(F)CSc1cc(/N=C(\NCCc2ncc(C(F)(F)F)cc2Cl)C2CC2)c(Cl)cc1Cl [Ia-235] | 90% | –
77 | Cc1cc(C)c([S+]([O-])CC(F)(F)F)cc1/N=C(\NC1CC1)c1ccc(Cl)nc1 (centres unmarked) [Ib-136] | 90% | –
78 | Cc1cc(F)c(/N=C(/NC2COC2)C(F)(F)F)cc1[S+]([O-])CC(F)(F)F (centres unmarked) [Ib-54] | 90% | –
79 | Cc1cc(C)c(SCC(F)(F)F)cc1/N=C1\SCC(=O)N1CC(F)(F)F [Ia-272] | 100% | –
80 | CN/C(=N\c1cc(SCC(F)(F)F)c(C)cc1F)c1cccnc1 [Ia-61, N′-{2-Fluoro-4-methyl-5-[(2,2,2-trifluoroethyl)sulfanyl]phenyl}-N-methylpyridine-3-carboximidamide] | 100% | –
